This is an account of results in PMC9325671, “Targeting LIPA independent of its lipase activity is a therapeutic strategy in solid tumors via induction of endoplasmic reticulum stress” (Nature Cancer, 2022).

Molecules are shown by their SMILES.

This experiment concerns the target T1, lysosomal acid lipase (LAL, LIPA) (Homo sapiens, UniProt P38571).
T1 construct: endogenous LAL in SUM-159 cells (CETSA); WT-LIPA reconstituted in LIPA KO cells (pulldown)
T1 sequence (P38571 77-399): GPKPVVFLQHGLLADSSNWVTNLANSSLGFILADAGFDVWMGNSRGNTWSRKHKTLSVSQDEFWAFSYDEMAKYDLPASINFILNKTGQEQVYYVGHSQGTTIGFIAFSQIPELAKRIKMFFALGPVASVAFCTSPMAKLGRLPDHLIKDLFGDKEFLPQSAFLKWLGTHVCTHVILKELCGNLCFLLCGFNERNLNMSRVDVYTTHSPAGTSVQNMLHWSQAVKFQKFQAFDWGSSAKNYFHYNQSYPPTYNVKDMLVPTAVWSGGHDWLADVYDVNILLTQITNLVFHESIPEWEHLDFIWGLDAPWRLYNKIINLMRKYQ
The experiment can be described thus: cellular thermal shift assay ([…] ERX-41) in SUM-159 cells; pulldown from lysates with biotinylated ERX-41. The format is cell-based.

On to `CC(C)COc1cc(C(=O)Nc2ccc(C(=O)N[C@H]3CC[C@H](C)CC3)cc2OCC(C)C)ccc1NC(=O)c1ccc([N+](=O)[O-])c(OCCO)c1` [ERX-41], for which the “cellular thermal shift assay (10 uM ERX-41) in SUM-159 cells; pulldown from lysa” value is “ERX-41 was able to stabilize LAL within the cell and shifted thermal sensitivity, suggesting that ERX-41 binds to LAL”.
